Data published in patent US20040014779A1, “Methods and compositions related to IRM compounds and toll-like recptor pathways” (3M Innovative Properties Company, priority 2001, published 2004).

Assays:
TLR6 [1] = molecular target: T1, TLR6 (Mus musculus, UniProt Q9EPW9); assay: IRM-stimulated TNF-α production by RAW 264.7 cells overexpressing TLR6; type: cell-based, murine
T1 construct: expressed in transfected cells; host or cells: RAW 264.7 (pIRES vector)
Text: The murine TLR wild-type vectors were generated by PCR amplification from RAW 264.7 cell cDNA with TLR6 specific primers (sense primer: SEQ ID NO 13; antisense primer: SEQ ID NO 14) or TLR7 specific primers (sense primer: SEQ ID NO 15; antisense primer: SEQ ID NO 16) by Pfu Turbo DNA polymerase kit (Stratagene, La Jolla, Calif.). The PCR products were inserted into pCR-Blunt II-TOPO for sequence verification and then subcloned into pIRES (BD Biosciences Clontech, Palo Alto, Calif.) for expression in mammalian cells.
THP-1 cells or RAW 264.7 cells were cultured and transfected with the wild type TLR 6 or wild type TLR 7 plasmids described above. The transfections were performed as in Example 1 with a 4:1 ratio of wild-type TLR to H2K plasmid (THP-1 cells) or CD4 (RAW 264.7 cells).
RAW 264.7 cells were stimulated with various concentrations of resiquimod and analyzed as described in Example 1. Results are provided in Table 4 and are expressed as fold increase in TNF-α production as compared to control transfected RAW 264.7 cells.

TLR6 [2] = molecular target: T2, TLR6 (Homo sapiens, UniProt Q9Y2C9, P680H); assay: TNF-α production by THP-1 cells transfected with TLR6DN vs vector control; type: cell-based
T2 construct: expressed in transfected cells; host or cells: THP-1 (pIRES vector)
T2 sequence (Q9Y2C9 32-796 P680H): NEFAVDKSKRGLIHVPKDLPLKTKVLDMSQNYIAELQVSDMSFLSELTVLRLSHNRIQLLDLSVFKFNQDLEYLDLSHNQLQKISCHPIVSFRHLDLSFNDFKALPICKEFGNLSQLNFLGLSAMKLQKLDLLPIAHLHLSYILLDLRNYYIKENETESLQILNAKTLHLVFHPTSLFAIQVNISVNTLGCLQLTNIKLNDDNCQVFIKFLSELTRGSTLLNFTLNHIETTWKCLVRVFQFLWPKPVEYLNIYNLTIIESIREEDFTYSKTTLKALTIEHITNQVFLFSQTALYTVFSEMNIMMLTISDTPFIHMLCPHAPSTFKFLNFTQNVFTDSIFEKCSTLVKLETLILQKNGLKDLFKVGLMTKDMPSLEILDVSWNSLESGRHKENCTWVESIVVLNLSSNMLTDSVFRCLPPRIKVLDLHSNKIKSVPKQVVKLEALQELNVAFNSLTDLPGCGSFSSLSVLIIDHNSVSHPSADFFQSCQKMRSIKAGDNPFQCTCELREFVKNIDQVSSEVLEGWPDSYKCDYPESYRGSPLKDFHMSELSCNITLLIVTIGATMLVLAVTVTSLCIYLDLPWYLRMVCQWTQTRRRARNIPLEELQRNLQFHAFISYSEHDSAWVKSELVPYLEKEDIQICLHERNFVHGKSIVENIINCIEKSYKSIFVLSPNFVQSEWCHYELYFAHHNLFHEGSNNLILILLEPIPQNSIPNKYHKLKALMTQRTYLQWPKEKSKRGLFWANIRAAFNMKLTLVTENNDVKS
T2 sequence (O60603 19-784 partner limits assumed): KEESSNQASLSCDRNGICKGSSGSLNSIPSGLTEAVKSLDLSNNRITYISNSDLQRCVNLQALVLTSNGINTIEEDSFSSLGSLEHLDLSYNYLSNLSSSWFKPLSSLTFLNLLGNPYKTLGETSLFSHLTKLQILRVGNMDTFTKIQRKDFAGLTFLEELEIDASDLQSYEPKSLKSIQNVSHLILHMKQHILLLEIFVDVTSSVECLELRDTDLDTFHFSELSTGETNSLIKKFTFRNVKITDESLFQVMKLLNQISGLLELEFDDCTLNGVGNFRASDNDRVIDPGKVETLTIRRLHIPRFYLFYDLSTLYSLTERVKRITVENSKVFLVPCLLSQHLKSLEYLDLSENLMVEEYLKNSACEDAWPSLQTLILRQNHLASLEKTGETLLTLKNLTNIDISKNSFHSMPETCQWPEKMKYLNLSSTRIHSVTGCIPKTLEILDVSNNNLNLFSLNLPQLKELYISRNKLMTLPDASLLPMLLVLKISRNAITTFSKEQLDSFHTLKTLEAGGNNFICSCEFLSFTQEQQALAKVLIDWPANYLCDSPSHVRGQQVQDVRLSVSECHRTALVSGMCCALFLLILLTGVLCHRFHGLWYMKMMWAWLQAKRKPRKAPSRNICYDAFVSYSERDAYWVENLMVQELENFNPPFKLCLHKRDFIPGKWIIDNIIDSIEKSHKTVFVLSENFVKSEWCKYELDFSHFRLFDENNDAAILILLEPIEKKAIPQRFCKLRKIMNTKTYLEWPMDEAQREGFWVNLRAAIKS
Text: The human TLR6 dominant negative construct was generated from human PBMC cDNA using the same strategy as the murine TLR6 dominant negative. The proline to histidine mutation for human TLR6 was introduced at amino acid 680 along with an Apa LI restriction enzyme site (5′ sense: SEQ ID NO 5; 5′ antisense: SEQ ID NO 6; 3′ sense: SEQ ID NO 7; 3′ antisense: SEQ ID NO 8).
(§1) The amplified 5′ and 3′ sections of each human dominant negative TLR was inserted into pCR-Blunt II-TOPO for sequence verification. The 5′ and 3′ sections were joined together when subcloned into pIRES (Clontech, Palo Alto, Calif.) for expression in mammalian cells.
(§2) THP-1 cells (maintained at cell number less than 1×10^6 cells/ml) were co-transfected with the plamid vector containing either the TLR6DN or TLR7DN construct and with a murine H2K^k plasmid (Miltenyi Biotec Inc., Auburn, Calif.) in a 4:1 ratio of TLR plasmid to H2K^k plasmid. Transfection of THP-1 cells was carried out using the transfection reagent FuGENE 6 (Roche Diagnostics Corp., Indianapolis, Ind.) according to the manufacturer's specifications. […]
(§3) TNF-α levels were measured with a commercial Human TNF-α ELISA kit (Biosource International, Inc., Camarillo, Calif.) according to the manufacturer's specifications. […]

TLR6 [3] = molecular target: T3, TLR6 (Mus musculus, UniProt Q9EPW9, P680H); assay: TNF-α production by RAW 264.7 cells transfected with TLR6DN; type: cell-based
T3 construct: expressed in transfected cells; host or cells: RAW 264.7 (pIRES vector)
T3 sequence (Q9EPW9 28-795 P680H): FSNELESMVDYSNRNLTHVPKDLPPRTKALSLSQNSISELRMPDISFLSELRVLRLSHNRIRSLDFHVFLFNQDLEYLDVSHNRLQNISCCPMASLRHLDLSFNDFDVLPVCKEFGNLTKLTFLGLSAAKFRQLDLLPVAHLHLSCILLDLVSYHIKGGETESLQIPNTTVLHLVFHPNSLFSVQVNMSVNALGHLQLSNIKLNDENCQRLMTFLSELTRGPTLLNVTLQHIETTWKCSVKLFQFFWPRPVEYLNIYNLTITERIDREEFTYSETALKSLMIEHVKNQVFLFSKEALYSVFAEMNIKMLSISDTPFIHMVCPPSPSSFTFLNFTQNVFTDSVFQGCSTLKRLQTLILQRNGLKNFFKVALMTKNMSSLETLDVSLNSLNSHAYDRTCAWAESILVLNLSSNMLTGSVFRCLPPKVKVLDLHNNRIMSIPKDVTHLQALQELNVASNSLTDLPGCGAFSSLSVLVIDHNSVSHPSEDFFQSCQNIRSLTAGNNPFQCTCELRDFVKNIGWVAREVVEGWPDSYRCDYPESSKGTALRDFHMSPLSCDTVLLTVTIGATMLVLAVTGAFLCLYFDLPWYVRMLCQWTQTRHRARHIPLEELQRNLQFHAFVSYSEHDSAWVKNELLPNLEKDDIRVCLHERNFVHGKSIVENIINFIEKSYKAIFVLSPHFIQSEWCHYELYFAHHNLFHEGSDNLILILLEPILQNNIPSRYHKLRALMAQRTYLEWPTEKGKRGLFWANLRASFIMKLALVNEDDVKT
T3 sequence (Q9QUN7 25-784 partner): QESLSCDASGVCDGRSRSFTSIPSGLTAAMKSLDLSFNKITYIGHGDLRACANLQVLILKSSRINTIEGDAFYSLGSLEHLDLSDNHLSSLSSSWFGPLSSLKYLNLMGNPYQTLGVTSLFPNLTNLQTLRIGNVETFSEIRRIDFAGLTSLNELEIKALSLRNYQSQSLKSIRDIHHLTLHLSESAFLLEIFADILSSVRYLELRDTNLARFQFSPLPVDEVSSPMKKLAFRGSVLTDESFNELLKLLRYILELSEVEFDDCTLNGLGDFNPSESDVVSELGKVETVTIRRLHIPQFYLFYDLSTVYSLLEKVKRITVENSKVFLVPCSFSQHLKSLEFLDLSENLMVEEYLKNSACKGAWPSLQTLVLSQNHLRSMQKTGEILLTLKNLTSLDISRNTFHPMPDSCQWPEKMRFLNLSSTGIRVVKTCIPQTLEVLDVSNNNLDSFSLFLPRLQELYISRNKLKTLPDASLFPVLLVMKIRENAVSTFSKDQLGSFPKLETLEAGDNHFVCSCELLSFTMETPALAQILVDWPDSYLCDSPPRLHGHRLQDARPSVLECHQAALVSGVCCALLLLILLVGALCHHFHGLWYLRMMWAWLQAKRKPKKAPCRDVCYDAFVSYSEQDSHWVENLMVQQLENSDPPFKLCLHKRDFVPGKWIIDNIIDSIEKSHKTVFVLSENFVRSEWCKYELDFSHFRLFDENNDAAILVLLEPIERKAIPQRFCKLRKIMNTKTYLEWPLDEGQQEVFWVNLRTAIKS
Text: A murine TLR6 dominant negative construct was generated by PCR mutation during amplification from RAW 264.7 cell cDNA. The 5′ and 3′ regions flanking a codon encoding proline 691 were amplified with primers (5′ sense: SEQ ID NO 1; 5′ antisense: SEQ ID NO 2; 3′sense: SEQ ID NO 3; 3′ antisense: SEQ ID NO 4) that changed the codon for proline 691 to a codon encoding histidine while introducing a unique Apa LI restriction enzyme site at the position of the mutation. The 5′ and 3′ sections of the TLR6 were amplified by Pfu Turbo DNA polymerase kit (Stratagene, La Jolla, Calif.). The PCR sections were inserted into pCR-Blunt II-TOPO for sequence verification. The two sections were joined together when subcloned into pIRES (Clontech, Palo Alto, Calif.) for expression in mammalian cells.
RAW 264.7 cells were co-transfected with a truncated human CD4 for RAW 264.7 cells in a 4:1 ratio of TLR plasmid to CD4 plasmid. Transfection of RAW 264.7 cells was carried out using the transfection reagent DoTaP (Roche Diagnostics Corp., Indianapolis, Ind.) according to the manufacturer's specifications. […]
as §3

TLR7 = assay: TNF-α production by THP-1 cells transfected with TLR7DN vs vector control; type: cell-based, human
Text: The human TLR7 dominant negative construct was generated in a manner similar to that used to generate the human TLR6 dominant negative construct. The proline to histidine mutation for human was introduced at amino acid 932 along with a Bam HI restriction enzyme site (5′ sense: SEQ ID NO 9; 5′ antisense: SEQ ID NO 10; 3′ sense: SEQ ID NO 11; 3′ antisense: SEQ ID NO 12).
as §1, §2, §3

[4] = stimulus 3 μM, 18 hours, relative to vector control

T1 sequence (Q9EPW9 28-795): as the sequence (Q9EPW9 28-795 P680H) above, with H653P counted along it
T1 sequence (Q9QUN7 25-784 partner): as the sequence (Q9QUN7 25-784 partner) above

SMILES: CCOCc1nc2c(N)nc3ccccc3c2n1CC(C)(C)O [Resiquimod, 4-amino-2-ethoxymethyl-α,α-dimethyl-1H-imidazo[4,5-c]quinoline-1-ethanol]
- Fold increase in TNF-α production over control, TLR6 (TLR6 [1]; RAW 264.7 overexpressing TLR6, 0.0004 μM): 9.6 fold
- Fold increase in TNF-α production over control, TLR6 (TLR6 [1]; RAW 264.7 overexpressing TLR6, 0.001 μM): 8.0 fold
- Fold increase in TNF-α production over control, TLR6 (TLR6 [1]; RAW 264.7 overexpressing TLR6, 0.004 μM): 9.2 fold
- Fold increase in TNF-α production over control, TLR6 (TLR6 [1]; RAW 264.7 overexpressing TLR6, 0.012 μM): 3.5 fold
- Fold increase in TNF-α production over control, TLR6 (TLR6 [1]; RAW 264.7 overexpressing TLR6, 0.037 μM): 3.9 fold
- Fold increase in TNF-α production over control, TLR6 (TLR6 [1]; RAW 264.7 overexpressing TLR6, 1 μM): 1.4 fold
- Fold increase in TNF-α production over control, TLR6 (TLR6 [1]; RAW 264.7 overexpressing TLR6, 3 μM): 1.7 fold
- Fold increase in TNF-α production over control, TLR6 (TLR6 [1]; RAW 264.7 overexpressing TLR6, 10 μM): 1.8 fold
- TLR6 agonist character (in words) (TLR6 [1]; from TLR6 overexpression in RAW 264.7 cells): agonist
- Effect of TLR6DN on stimulus-induced TNF-α production (in words) (TLR6 [2]; compared to control vector): inhibited
- TLR6DN % inhibition of TNF-α production (TLR6 [2]; [4]): 70.1%
- Effect of TLR6DN on stimulus-induced TNF-α production (in words) (TLR6 [3]; compared with stimulation by LPS): inhibited to a much greater extent
- % inhibition of TNF-α production (TLR6DN) (TLR6 [3]; stimulus 3 μM): 70.9%
- Effect of TLR7DN on stimulus-induced TNF-α production (in words) (TLR7; compared to control vector): inhibited
- TLR7DN % inhibition of TNF-α production (TLR7; [4]): 55.3%
